Assay results published in ChEMBL document CHEMBL1201862, “PubChem BioAssay data set” (2004).
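A five-concentration, 48-hour dose response in 96-well plates underlies each endpoint, interpolated linearly between surrounding concentrations. GI50 is the concentration that inhibits growth by half.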 Activity calls are given as the source filed them. Rule as the data show it: active = GI50 up to about 1.1 µM and inactive = higher.

What was measured:
Assay in all cases: NCI-60 cell line screen, 48 h
UACC-62 = tested on: UACC-62
CAKI-1 = tested on: CAKI-1
786-0 = tested on: 786-0
HT-29 = tested on: HT-29
HOP-92 = tested on: HOP-92
NCI-H522 = tested on: NCI-H522
SR = tested on: SR
T47D = tested on: T47D
UO-31 = tested on: UO-31
NCI-H226 = tested on: NCI-H226
MOLT-4 = tested on: MOLT-4
IGROV-1 = tested on: IGROV-1
SF-539 = tested on: SF-539
OVCAR-3 = tested on: OVCAR-3
Malme-3M = tested on: Malme-3M
LOX IMVI = tested on: LOX IMVI
NCI-H460 = tested on: NCI-H460
SNB-75 = tested on: SNB-75
KM12 = tested on: KM12
PC-3 = tested on: PC-3

Compound	GI50 (UACC-62)	GI50 (CAKI-1)	GI50 (786-0)	GI50 (HT-29)	GI50 (HOP-92)	GI50 (NCI-H522)	GI50 (SR)	GI50 (T47D)	GI50 (UO-31)	GI50 (NCI-H226)	GI50 (MOLT-4)	GI50 (IGROV-1)	GI50 (SF-539)	GI50 (OVCAR-3)	GI50 (Malme-3M)	GI50 (LOX IMVI)	GI50 (NCI-H460)	GI50 (SNB-75)	GI50 (KM12)	GI50 (PC-3)
O=C1/C(=C/c2ccc(F)cc2)CNC/C1=C\c1ccc(F)cc1	2.32 µM (inactive)	1.12 µM (inactive)	0.762 µM (active)	0.664 µM (active)	3.61 µM (inactive)	1.53 µM (inactive)	0.305 µM (active)	3.37 µM (inactive)	1.81 µM (inactive)	2.82 µM (inactive)	2.11 µM (inactive)	0.667 µM (active)	0.865 µM (active)	1.65 µM (inactive)	3.28 µM (inactive)	0.63 µM (active)	0.675 µM (active)	3.75 µM (inactive)	0.53 µM (active)	1.79 µM (inactive)
O=[N+]([O-])c1ccc(S(=O)(=O)Cc2ccccc2)c2nonc12	17.8 µM (inactive)	20.1 µM (inactive)	19.6 µM (inactive)	18.7 µM (inactive)	19.9 µM (inactive)	18.8 µM (inactive)	24.2 µM (inactive)	18.9 µM (inactive)	29.2 µM (inactive)	> 100 µM (inactive)	18.7 µM (inactive)	18.8 µM (inactive)	17.9 µM (inactive)	20.8 µM (inactive)	17.9 µM (inactive)	19.2 µM (inactive)	21.1 µM (inactive)	27.6 µM (inactive)	19.5 µM (inactive)	17.8 µM (inactive)
c1ccc(C(c2cccc3c2ccc2ccccc23)C(c2ccccc2)c2cccc3c2ccc2ccccc23)cc1 (stereo not given)	> 100 µM (inactive)	> 100 µM (inactive)	> 100 µM (inactive)	> 100 µM (inactive)	> 100 µM (inactive)	> 100 µM (inactive)	> 100 µM (inactive)	> 100 µM (inactive)	> 100 µM (inactive)	> 100 µM (inactive)	> 100 µM (inactive)	> 100 µM (inactive)	> 100 µM (inactive)	> 100 µM (inactive)	> 100 µM (inactive)	> 100 µM (inactive)	> 100 µM (inactive)	> 100 µM (inactive)	> 100 µM (inactive)	> 100 µM (inactive)
CN(C)/C=N/S(=O)(=O)c1nn2c(C=O)c(-c3cc4ccccc4oc3=O)nc2s1	7.28 µM (inactive)	1.75 µM (inactive)	1.92 µM (inactive)	0.918 µM (active)	4.08 µM (inactive)	1.16 µM (inactive)	5.73 µM (inactive)	4.09 µM (inactive)	1.51 µM (inactive)	15.2 µM (inactive)	1.89 µM (inactive)	9.4 µM (inactive)	4.53 µM (inactive)	3.08 µM (inactive)	1.95 µM (inactive)	2.65 µM (inactive)	19.3 µM (inactive)	27.4 µM (inactive)	12.1 µM (inactive)	12.4 µM (inactive)
CCCCCCCCCCCC(=O)N(CCCCCCCCC)CC(O)C(O)C(OC1OC(CO)C(O)C(O)C1O)C(O)CO (stereo not given)	17.7 µM (inactive)	20.7 µM (inactive)	17.5 µM (inactive)	19.2 µM (inactive)	18.6 µM (inactive)	22.1 µM (inactive)	24.7 µM (inactive)	20.5 µM (inactive)	17 µM (inactive)	20.4 µM (inactive)	23.2 µM (inactive)	18.3 µM (inactive)	21.4 µM (inactive)	20.2 µM (inactive)	19.5 µM (inactive)	20.9 µM (inactive)	18.1 µM (inactive)	18.5 µM (inactive)	16.7 µM (inactive)	19.2 µM (inactive)
O=C1CSC2(CC(/C=C/c3ccccc3)=NN2c2cccc(S(=O)(=O)O)c2)N1c1nc2ccccc2s1 (stereo not given)	18.9 µM (inactive)	38.5 µM (inactive)	18.3 µM (inactive)	38.3 µM (inactive)	21.7 µM (inactive)	19.5 µM (inactive)	21.8 µM (inactive)	17.1 µM (inactive)	18.5 µM (inactive)	37.5 µM (inactive)	24.9 µM (inactive)	16.1 µM (inactive)	39.7 µM (inactive)		69.7 µM (inactive)	9.59 µM (inactive)	26.3 µM (inactive)	26.7 µM (inactive)	19.4 µM (inactive)	25.6 µM (inactive)
COC1(OC)C2C=CC1C([C@](C)(N)CO)C2 (stereo not given in full)	> 100 µM (inactive)	> 100 µM (inactive)	> 100 µM (inactive)	> 100 µM (inactive)	> 100 µM (inactive)	> 100 µM (inactive)	> 100 µM (inactive)	> 100 µM (inactive)	> 100 µM (inactive)	> 100 µM (inactive)	> 100 µM (inactive)	> 100 µM (inactive)	> 100 µM (inactive)	> 100 µM (inactive)	> 100 µM (inactive)		> 100 µM (inactive)	> 100 µM (inactive)	> 100 µM (inactive)	> 100 µM (inactive)
OC[C@H]1CCCC1O (stereo not given in full)	> 100 µM (inactive)	> 100 µM (inactive)	> 100 µM (inactive)	> 100 µM (inactive)	> 100 µM (inactive)	> 100 µM (inactive)	> 100 µM (inactive)	> 100 µM (inactive)	> 100 µM (inactive)	> 100 µM (inactive)	> 100 µM (inactive)	> 100 µM (inactive)	> 100 µM (inactive)	> 100 µM (inactive)	> 100 µM (inactive)		> 100 µM (inactive)	73.1 µM (inactive)	> 100 µM (inactive)	> 100 µM (inactive)
NC(CCCCNc1ccn(C2OC(CO)C(O)C2O)c(=O)n1)C(=O)O (stereo not given)	> 100 µM (inactive)	> 100 µM (inactive)	> 100 µM (inactive)		53.7 µM (inactive)	> 100 µM (inactive)	> 100 µM (inactive)	> 100 µM (inactive)	> 100 µM (inactive)	> 100 µM (inactive)	73.3 µM (inactive)	65.8 µM (inactive)	> 100 µM (inactive)	> 100 µM (inactive)	> 100 µM (inactive)	> 100 µM (inactive)	> 100 µM (inactive)	> 100 µM (inactive)	> 100 µM (inactive)	> 100 µM (inactive)
CCOC(=O)c1cnc(N(C)C)nc1SC(=N)N	> 100 µM (inactive)	> 100 µM (inactive)	> 100 µM (inactive)	> 100 µM (inactive)	> 100 µM (inactive)	> 100 µM (inactive)	35.6 µM (inactive)	> 100 µM (inactive)		> 100 µM (inactive)	49.2 µM (inactive)	> 100 µM (inactive)	> 100 µM (inactive)	> 100 µM (inactive)	> 100 µM (inactive)	> 100 µM (inactive)	> 100 µM (inactive)	> 100 µM (inactive)	> 100 µM (inactive)	> 100 µM (inactive)
